Key:
[1] = tested on: experimental autoimmune encephalomyelitis (EAE) mouse model; assay: Study EAE-C03: clinical score in EAE mouse model, treatment in chronic phase; format: in vivo; details: after 17 days of treatment, treatment started in chronic phase
Procedure: Three in vivo studies supporting the medical plausibility of BN201 in the treatment of MS and optic neuritis were performed. These studies sought to test the neuroprotective effect of BN201 and were conducted in the neurodegenerative and demyelinating experimental autoimmune encephalomyelitis (EAE) mouse model. Immune response to Myelin Basic Protein (MBP) or Myelin Proteolipid Protein (PLP) induces lesions located predominantly in the spinal cord whereas immunization with Myelin Oligodendrocyte Glycoprotein (MOG) generates lesions located predominantly in the optic nerve and spinal cord. In the literature, the EAE model is commonly used as a model of MS and optic neuritis, since it can cause irreversible visual loss (Kezuka et al, Analysis of the pathogenesis of experimental autoimmune optic neuritis. J Biomed Biotechnol. 2011; 2011:294046; Guo et al, Decreased neural stem/progenitor cell proliferation in mice with chronic/nonremitting experimental autoimmune encephalomyelitis. Neurosignals. 2010; 18(1):1-8).
Study EAE-C03: daily i.p. administration of BN201 at two different concentrations was tested versus placebo according to the following experimental design: • EAE affected placebo-treated animals (pathological control group); • EAE-affected animals treated with BN201 at 50 mg/kg dose and • EAE-affected animals treated with BN201 at 100 mg/kg dose. […]

[2] = tested on: experimental autoimmune encephalomyelitis (EAE) mouse model; assay: Study EAE-C06: dose response of BN201, clinical score in EAE mouse model; format: in vivo; details: almost all days of observation/treatment (Day 2 to day 30)
Procedure: A third experiment (Study EAE-C06) to test dose response of BN201 was then performed using the same mouse model.
Study EAE-C06: five different concentrations of BN201: 12.5 mg/kg, 25 mg/kg, 50 mg/kg, 100 mg/kg, and 150 mg/kg. Also sham, pathological control and FTY720 (2 mg/kg) comparator groups were included in the experiment. All groups were administered daily.
Clinical scores were assigned to assess disease severity using the following scale: 0=normal; 0.5=Partial tail paralysis; 1=Complete tail paralysis; 1.5=Tail paralysis and loss of righting reflex; 2=Partial hind limb paralysis/paralysis of one limb; 2.5=One limb paralysis and partial loss of activity of one other limb; 3=Bilateral hind limb paralysis; 4=Moribund; 5=exitus.
Therapeutic treatment was initiated on day 12 once each mouse started showing complete tail paralysis (Score 1).
Data are depicted in FIG. 1 (C), wherein the clinical score for each of the tested groups is plotted per day after disease onset.

[3] = tested on: EAE in C57BL6 mice immunized with MOG35-55; assay: Example 4: BN201 and STAT3 inhibitor combination, chronic phase of EAE; format: in vivo, mouse; details: BN201 50 mg/kg i.p. alone (optimal), from day 34 to day 54
Procedure: Effect during the chronic phase of the disease in the animal model of Multiple Sclerosis (i.e., EAE in C57BL6 mice immunized with MOG35-55)
Efficacy and safety of combination therapy with optimal doses of BN201 (50 mg/kg) and S31-201 (5 mg/kg) in the progression of chronic EAE in mice.
Starting the chronic phase of the disease (by day 34) mice were administered: • the STAT3 inhibitor S31-201 (group A, 7 mice), • BN201 (group B, 6 mice), or • a combination thereof (group C, 6 mice) once a day for six days per week at optimal dosages (5 mg/kg for S31-201, 50 mg/kg for BN201).
S31-201 and BN201 were administered via i.p. injection in a saline vehicle at a volume of 5 mL/kg. Control mice received vehicle only via both oral and i.p. injection (group D, 6 mice) or nothing at all (group E, 2 mice). Mice were treated from day 34 (chronic EAE stage) until the end of the experiment on day 54.
The combination of BN201 and the STAT3-inhibitor S31-201 was evaluated for its effect during the chronic phase of the disease in the animal model of Multiple Sclerosis (i.e., EAE in C57BL6 mice immunized with MOG35-55). The objective of the study was to evaluate the efficacy and safety of combination therapy with optimal doses of BN201 (50 mg/kg) and 531-201 (5 mg/kg) in the progression of chronic EAE in mice. […]

With `CC(C)CN(CC(=O)N(CCCN1CCCC1=O)CC(N)=O)C(=O)CNCCc1ccccc1F` [BN201, [N-(2-(2′-Fluorophenyl)ethyl)glycyl]-[N-(2-methylpropyl)glycyl]-N-[3-(2′-oxopyrrolidinyl)-propyl]glycinamide] the “clinical score compared to placebo” value ([1]; 50 mg/kg daily i.p.) was “significantly decreased the clinical score”, the “clinical score compared to placebo” value ([1]; 100 mg/kg daily i.p.) was “significantly decreased the clinical score” and the clinical score ([2]; 50 mg/kg daily) was “significant amelioration of the clinical score”. For the same molecule, the clinical score ([2]; 100 mg/kg daily) was “significant amelioration of the clinical score” and the “course of EAE in chronic phase (clinical score)” value [3] was “not efficacious”.

Source: US20260232752A1, “COMBINATION THERAPY METHODS, COMPOSITIONS AND KITS” (Accure Therapeutics, S.L., priority 2019, published 2026)
